Measured values reported in US11352382B2, “Mito-lonidamine, compositions and methods of use” (THE MEDICAL COLLEGE OF WISCONSIN, INC., priority 2018, dated 2022).
Entries after “also recorded” stand apart in the source; their conditions may differ.

How the values were obtained:
[1] = system: mitochondrial Complex I; assay: Activity of mitochondrial complexes in permeabilized tumor cells (OCR), pancreatic cancer cells; assay type: cell-based, human
Experimental: To investigate the mechanism of mitochondrial inhibition, we measured the activity of mitochondrial complexes in tumor cells. The cell membrane was permeabilized, and OCR was measured upon addition of substrates and inhibitors of mitochondrial complexes I-II.

[2] = system: mitochondrial complexes I and II; assay: Inhibition of mitochondrial complexes I and II, stated jointly; assay type: cell-based, human; details: for fold potency compared with LON/LDN, complexes I and II: H2030BrM3 lung cancer cells
Description: (§1) LON and Mito-LON inhibit mitochondrial complex I activity. Mito-LON inhibited cellular respiration (oxygen consumption rate, OCR) at >100-fold lower concentration than LON in intact lung cancer cells (FIG. 9). Both basal respiration and the response to mitochondrial stressors (oligomycin, dinitrophenol) were diminished by Mito-LON (not shown). To investigate the mechanism of mitochondrial inhibition, we measured the activity of mitochondrial complexes in H2030BrM3 cells (NSCLC cell line). The cell membrane was permeabilized, and OCR was measured upon addition of substrates and inhibitors of mitochondrial complexes I-IV (FIG. 9A). These studies established the optimal use of permeabilized cells for complex activity assays.^54 Next, cells were pretreated with LON and Mito-LON for 24 h and experiments performed as in FIG. 9A. […] We hypothesize that inhibition of mitochondrial complexes I and II is the predominant mechanism for antiproliferative effects of Mito-LON on lung cancer cells.

[3] = system: intact lung cancer cells; assay: Cellular respiration (oxygen consumption rate, OCR) in intact lung cancer cells; assay type: cell-based, human; details: not shown
Description: as §1

[4] = system: H2030BrM3 cells; assay: Cell proliferation, IncuCyte Live-Cell Imaging Analyzer (cell confluence); assay type: cell-based; details: Homo sapiens, H2030-BrM3, read-out: IC50, cell proliferation
Experimental: In contrast, Mito-LON (1.2-2.7 μM) targets mitochondrial complexes I and II (FIG. 9); its mitochondrial effects are supported by the compartment-selective oxidation of mitochondrial Prx3 (FIG. 13). The anti-proliferative effects of Mito-LON and LON were compared in H2030BrM3 cells.

[5] = system: mitochondrial Prx3; assay: Redox status of mitochondrial peroxiredoxin; assay type: cell-based, human; details: lung cancer cells
Description: Inhibition of mitochondrial respiration results in increased O2^⋅− and other oxidants.

[6] = system: phosphorylated ERK and AKT in H2030BrM3 cells; assay: Receptor tyrosine kinase assay and Western blots of ERK and AKT phosphorylation; assay type: cell-based, human
Description: Role of HK2 and additional possible signaling events that contribute to the effects of Mito-LON. […] This could contribute to their effects as many cancers have constitutive ERK activation which promotes survival and proliferation, and ERK1 can play an important role in regulating mitochondrial activity, apoptosis, proliferation and migration. […] AKT is another pro-survival factor that is constitutively activated (phosphorylated) in many cancers.

[7] = system: H2030, PC9, H460, H2030BrM3, PC9BrM3 cells; assay: Cell viability of lung cancer and brain metastatic lines (Calcein-AM); assay type: cell-based, human
Description: Mito-LON treatment causes cell death of human lung cancer and lung cancer-derived brain metastatic cell lines. Paradoxical roles for autophagy in cancer have been reported for the role of autophagy in cancer. Under conditions of nutrient deprivation autophagy induction can promote cell survival; however, in response to other environmental stressors including ROS generation, autophagy can promote cancer cell death. We treated lung cancer lines (H2030, PC9, H460) and lung cancer-derived brain metastatic lines (H2030BrM3, PC9BrM3) with Mito-LON (1.6, 2.0 or 2.4 μM) and measured cell viability at 24 and 48 h.

[8] = system: A/J mice; assay: 8-week toxicology study (maximum tolerated dose, Modified Irwin Screen); assay type: in vivo, mouse
Description: Maximum tolerated dose (MTD) of Mito-LON. We conducted an 8-week toxicology study to evaluate possible toxicity of Mito-LON, especially on neural and muscle cells using a Modified Irwin Screen, developed as a comprehensive observational battery to broadly screen for central nervous system (CNS) effects of agents. Modifications of this test are extensively used in the pharmaceutical industry and in academic research to identify changes in neurological function as a result of agent intoxication, neurotoxicity, or genetic manipulation. The screen used here employs 35 distinct measurements to assess sensorimotor, neurological, and autonomic nervous system function^78. The effective dose (ED) of Mito-LON is designated as 7.5 μmol/kg based on our preliminary data (FIGS. 24 & 25).

[9] = system: H2030BrM3 orthotopic lung adenocarcinoma in nude mice; assay: Orthotopic lung tumor mouse model; assay type: in vivo
Experimental: Inhibitory effects of Mito-LON in an orthotopic lung tumor mouse model. We conducted a pilot study using an orthotopic model of lung adenocarcinoma (H2030BrM3 cells) in nude mice. Cells (1×10^6 cells/50 μg of growth factor-reduced Matrigel in 50 μL of RPMI-1640) were injected into the lung. One week after injection, mice were treated with the same dose of LON or Mito-LON (7.5 μmol/kg), or vehicle (corn oil), by oral gavage 5 times/wk for 3 wks.

[10] = system: luciferase-expressing H2030BrM3 cells in Nod/Scid mice; assay: Lung cancer brain metastasis model, intra-cardiac injection, bioluminescence; assay type: in vivo, mouse; details: 7.5 μmol/kg oral gavage
Experimental: Mito-LON inhibits lung cancer brain metastasis in Nod/Scid mice. Preliminary experiments assessed the effect of Mito-LON, and its enhanced potency vs. LON, on brain metastasis in Nod/Scid mice in which luciferase-expressing H2030BrM3 cells were injected via intra-cardiac insertion. To ensure the accuracy of injection and precision in the quantity of the cells injected, we used high-resolution echocardiography to guide the needle into the left ventricle. In FIG. 25A, the needle's positioning is clearly discernable. Mice were imaged for firefly luciferase expression (150 μg/g D-luciferin) using an IVIS 100 imaging system at multiple time points post-injection. Regions of interest were defined manually over the brain, and LivingImage and Igor image analysis software were used to determine total photon flux. One day after engrafting the H2030BrM3 cells in arterial circulation (FIG. 19A), LON or Mito-LON (7.5 μmol/kg each) were administered by oral gavage, tumor growth was monitored by bioluminescence, and ex vivo GFP expression and H&E staining were determined at the end point. H2030BrM3 cells rapidly colonized in the cerebrum and cerebellum (FIG. 25B).

[11] = 7.5 μmol/kg oral gavage 5 times/wk for 3 wks, nude mice

Compound: O=C(NCCCCCCCCCC[P+](c1ccccc1)(c1ccccc1)c1ccccc1)c1nn(Cc2ccc(Cl)cc2Cl)c2ccccc12 [Mito-LON, Mito10-lonidamine]
- Complex I versus Complex II inhibition ([1]; FIG. 7): inhibits Complex I more potently than Complex II
- fold more potent than lonidamine in inhibiting Complex I activity of tumor cells ([1]; FIGS. 7 and 8): > 500 fold
- concentration that targets mitochondrial complexes I and II ([2]; FIG. 9): 1.2 to 2.7 µM
- fold potency compared with LON/LDN, complexes I and II ([2]; FIG. 9): over 100 fold
- fold potency compared with LON/LDN, complexes I and II ([2]; FIG. 9, listed as Mito-LDN): greater than 100 fold
- IC50 ([2]; read-out: IC50, inhibition of complex I and II, pretreatment of H2030BrM3 cells): ~2 µM
- basal respiration and response to mitochondrial stressors (oligomycin, dinitrophenol) [3]: diminished
- IC50 [4]: 0.7 µM
- oxidation of mitochondrial Prx3 [5]: oxidizes mitochondrial Prx3; also recorded: pronounced oxidation
- oxidation of mitochondrial Prx3 ([5]; listed as Mito-LDN): oxidizes mitochondrial Prx3
- phosphorylated AKT levels [6]: decreased phosphorylated AKT levels
- phosphorylated ERK levels ([6]; confirmed by Western blots): decreased phosphorylated ERK levels
- cytotoxicity at 2 µM ([7]; Homo sapiens, NCI-H2030, H2030 cells, 2.0 μM, 48 h, Calcein-AM, read-out: reduction of cell viability): ~50%
- LD50, cell viability ([7]; lung cancer and brain metastatic lines, 24 and 48 h): 2.0 µM
- toxicity overall ([8]; doses up to 50× ED): did not show any toxicity
- body weights (and organ weights) and 35 Modified Irwin Screen metrics versus control ([8]; up to 50× ED, A/J mice, 8-weeks treatment): didn't observe any significant differences
- toxic effects in neural tissue and muscles by histopathology, liver function (serum AST and ALT) ([8]; up to 50× ED, A/J mice, 8 weeks): No toxic effects
- reduction of lymph node metastasis [9, 11]: > 50%
- reduction of tumor progression [9, 11]: > 70%
- liver histopathology (H&E sections) ([9]; 7.5 μmol/kg oral gavage, 3 wks): no histopathologic signs of toxicity
- effective dose (ED) ([9]; designated from preliminary data (FIGS. 24 & 25)): 7.5 µmol/kg
- inhibition of brain metastasis of lung cancer cells [10]: significant efficacy in inhibiting brain metastasis
